Measured values from ChEMBL document CHEMBL1201862, “PubChem BioAssay data set” (2004).
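Interpolation was linear, between the two tested concentrations surrounding the appropriate level; five concentrations were tested over 48 hours in 96-well plates. At the GI50, growth is halved.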 Calls of active or inactive are those of the source. Rule as the data show it: active = GI50 up to about 1.1 µM and inactive = higher.

Key:
Assay in all cases: DTP human tumour cell line panel, 48 h
[1] = system: 786-0
[2] = system: A498
[3] = system: A549
[4] = system: ACHN
[5] = system: CCRF-CEM
[6] = system: COLO 205
[7] = system: DLD-1
[8] = system: DMS-114
[9] = system: DMS-273
[10] = system: EKVX
[11] = system: HCC 2998
[12] = system: HCT-116
[13] = system: HCT-15
[14] = system: HL-60
[15] = system: HOP-18
[16] = system: HOP-62
[17] = system: HOP-92
[18] = system: HT-29
[19] = system: IGROV-1
[20] = system: K562
[21] = system: KM-20L2
[22] = system: KM12
[23] = system: LOX IMVI
[24] = system: LXFL 529
[25] = system: M14
[26] = system: M19-MEL
[27] = system: MOLT-4
[28] = system: Malme-3M
[29] = system: NCI-H23
[30] = system: NCI-H460
[31] = system: OVCAR-3
[32] = system: OVCAR-4
[33] = system: OVCAR-5
[34] = system: OVCAR-8
[35] = system: RPMI-8226
[36] = system: RXF 393
[37] = system: SF-268
[38] = system: SF-295
[39] = system: SF-539
[40] = system: SK-MEL-28
[41] = system: SK-MEL-5
[42] = system: SK-OV-3
[43] = system: SN12C
[44] = system: SNB-19
[45] = system: SNB-75
[46] = system: SNB-78
[47] = system: SR
[48] = system: SW-620
[49] = system: TK-10
[50] = system: U-251
[51] = system: UACC-257
[52] = system: UACC-62
[53] = system: UO-31
[54] = system: XF498
[55] = system: NCI-H226
[56] = system: SK-MEL-2
[57] = system: CAKI-1
[58] = system: BT-549
[59] = system: DU-145
[60] = system: Hs-578T
[61] = system: MCF7
[62] = system: MDA-MB-231
[63] = system: MDA-MB-435
[64] = system: MDA-N
[65] = system: NCI-H522
[66] = system: PC-3
[67] = system: T47D

O=C(O)C1=C(C(=O)Nc2ccccc2)C2C=CC1C2 (stereo not given)
GI50 [1]: > 100 µM (inactive)
GI50 [2]: > 100 µM (inactive)
GI50 [3]: > 100 µM (inactive)
GI50 [4]: > 100 µM (inactive)
GI50 [5]: > 100 µM (inactive)
GI50 [6]: > 100 µM (inactive)
GI50 [7]: > 100 µM (inactive)
GI50 [8]: > 100 µM (inactive)
GI50 [9]: > 100 µM (inactive)
GI50 [10]: > 100 µM (inactive)
GI50 [11]: > 100 µM (inactive)
GI50 [12]: > 100 µM (inactive)
GI50 [13]: > 100 µM
GI50 [14]: > 100 µM (inactive)
GI50 [15]: > 100 µM (inactive)
GI50 [16]: > 100 µM (inactive)
GI50 [17]: > 100 µM (inactive)
GI50 [18]: > 100 µM (inactive)
GI50 [19]: > 100 µM (inactive)
GI50 [20]: > 100 µM (inactive)
GI50 [21]: > 100 µM (inactive)
GI50 [22]: > 100 µM (inactive)
GI50 [23]: > 100 µM (inactive)
GI50 [24]: > 100 µM (inactive)
GI50 [25]: > 100 µM (inactive)
GI50 [26]: > 100 µM (inactive)
GI50 [27]: > 100 µM (inactive)
GI50 [28]: > 100 µM (inactive)
GI50 [29]: > 100 µM (inactive)
GI50 [30]: > 100 µM (inactive)
GI50 [31]: > 100 µM (inactive)
GI50 [32]: > 100 µM (inactive)
GI50 [33]: > 100 µM (inactive)
GI50 [34]: > 100 µM (inactive)
GI50 [35]: > 100 µM (inactive)
GI50 [36]: > 100 µM (inactive)
GI50 [37]: > 100 µM (inactive)
GI50 [38]: > 100 µM (inactive)
GI50 [39]: > 100 µM (inactive)
GI50 [40]: > 100 µM (inactive)
GI50 [41]: > 100 µM (inactive)
GI50 [42]: > 100 µM (inactive)
GI50 [43]: > 100 µM (inactive)
GI50 [44]: > 100 µM (inactive)
GI50 [45]: > 100 µM (inactive)
GI50 [46]: > 100 µM (inactive)
GI50 [47]: > 100 µM (inactive)
GI50 [48]: > 100 µM (inactive)
GI50 [49]: > 100 µM (inactive)
GI50 [50]: > 100 µM (inactive)
GI50 [51]: > 100 µM (inactive)
GI50 [52]: > 100 µM (inactive)
GI50 [53]: > 100 µM (inactive)
GI50 [54]: > 100 µM (inactive)

CN(C)CCNC(=O)c1c2ccccc2cc2ccccc12
GI50 [1]: 57 µM (inactive)
GI50 [2]: 31.5 µM (inactive)
GI50 [3]: 34.6 µM (inactive)
GI50 [4]: 32.4 µM (inactive)
GI50 [5]: 31.1 µM (inactive)
GI50 [6]: 18.2 µM (inactive)
GI50 [7]: 41.8 µM (inactive)
GI50 [8]: 53.1 µM (inactive)
GI50 [9]: 33 µM (inactive)
GI50 [10]: > 100 µM (inactive)
GI50 [11]: 32.7 µM (inactive)
GI50 [12]: 26.8 µM (inactive)
GI50 [13]: 36 µM
GI50 [14]: 25.4 µM (inactive)
GI50 [15]: > 100 µM (inactive)
GI50 [16]: 55.7 µM (inactive)
GI50 [17]: 60.4 µM (inactive)
GI50 [18]: 39.1 µM (inactive)
GI50 [19]: 41 µM (inactive)
GI50 [20]: 23.2 µM (inactive)
GI50 [21]: 37.7 µM (inactive)
GI50 [22]: 42.8 µM (inactive)
GI50 [23]: 13.5 µM (inactive)
GI50 [24]: 26.2 µM (inactive)
GI50 [25]: 16.7 µM (inactive)
GI50 [26]: 33.2 µM (inactive)
GI50 [27]: 3.99 µM (inactive)
GI50 [28]: 34.1 µM (inactive)
GI50 [55]: 12 µM (inactive)
GI50 [29]: 41.4 µM (inactive)
GI50 [30]: 18.1 µM (inactive)
GI50 [31]: 93.8 µM (inactive)
GI50 [32]: 31 µM (inactive)
GI50 [33]: 50.9 µM (inactive)
GI50 [34]: 38.1 µM (inactive)
GI50 [35]: 17.5 µM (inactive)
GI50 [36]: 25.3 µM (inactive)
GI50 [37]: 44.7 µM (inactive)
GI50 [38]: 61.2 µM (inactive)
GI50 [39]: 32.7 µM (inactive)
GI50 [40]: 25.5 µM (inactive)
GI50 [56]: 8 µM (inactive)
GI50 [41]: 16.9 µM (inactive)
GI50 [42]: > 100 µM (inactive)
GI50 [43]: 34.4 µM (inactive)
GI50 [44]: > 100 µM (inactive)
GI50 [45]: 42.9 µM (inactive)
GI50 [46]: 55.3 µM (inactive)
GI50 [47]: 0.473 µM (active)
GI50 [48]: 34.4 µM (inactive)
GI50 [49]: 30.5 µM (inactive)
GI50 [50]: 41.3 µM (inactive)
GI50 [51]: 18.5 µM (inactive)
GI50 [52]: 20 µM (inactive)
GI50 [53]: 26.2 µM (inactive)
GI50 [54]: 19.5 µM (inactive)

COc1ccccc1NC(=O)C1=C(C)NC(C)=C(C(=O)Nc2ccccc2OC)C1/C=C/c1ccccc1
GI50 [1]: > 100 µM (inactive)
GI50 [2]: > 100 µM (inactive)
GI50 [3]: 80.9 µM (inactive)
GI50 [4]: 90.8 µM (inactive)
GI50 [57]: > 100 µM (inactive)
GI50 [5]: 49.1 µM (inactive)
GI50 [6]: > 100 µM (inactive)
GI50 [7]: > 100 µM (inactive)
GI50 [8]: 61.7 µM (inactive)
GI50 [9]: > 100 µM (inactive)
GI50 [10]: 89.3 µM (inactive)
GI50 [11]: > 100 µM (inactive)
GI50 [12]: 48.3 µM (inactive)
GI50 [13]: > 100 µM
GI50 [14]: 60.1 µM (inactive)
GI50 [15]: > 100 µM (inactive)
GI50 [16]: > 100 µM (inactive)
GI50 [17]: > 100 µM (inactive)
GI50 [18]: > 100 µM (inactive)
GI50 [19]: > 100 µM (inactive)
GI50 [20]: 50.2 µM (inactive)
GI50 [21]: > 100 µM (inactive)
GI50 [22]: > 100 µM (inactive)
GI50 [23]: > 100 µM (inactive)
GI50 [24]: 84.9 µM (inactive)
GI50 [25]: > 100 µM (inactive)
GI50 [26]: > 100 µM (inactive)
GI50 [27]: 39.4 µM (inactive)
GI50 [28]: > 100 µM (inactive)
GI50 [55]: > 100 µM (inactive)
GI50 [29]: > 100 µM (inactive)
GI50 [30]: > 100 µM (inactive)
GI50 [31]: > 100 µM (inactive)
GI50 [32]: 20.1 µM (inactive)
GI50 [33]: > 100 µM (inactive)
GI50 [34]: > 100 µM (inactive)
GI50 [35]: 55.3 µM (inactive)
GI50 [37]: 92.9 µM (inactive)
GI50 [38]: > 100 µM (inactive)
GI50 [39]: > 100 µM (inactive)
GI50 [40]: > 100 µM (inactive)
GI50 [56]: > 100 µM (inactive)
GI50 [41]: > 100 µM (inactive)
GI50 [42]: > 100 µM (inactive)
GI50 [43]: > 100 µM (inactive)
GI50 [44]: > 100 µM (inactive)
GI50 [45]: 25.8 µM (inactive)
GI50 [46]: 54.8 µM (inactive)
GI50 [47]: 51.8 µM (inactive)
GI50 [48]: > 100 µM (inactive)
GI50 [49]: > 100 µM (inactive)
GI50 [50]: > 100 µM (inactive)
GI50 [51]: > 100 µM (inactive)
GI50 [52]: 97.9 µM (inactive)
GI50 [53]: > 100 µM (inactive)

COc1cc2c(c(OC)c1OC)-c1cccc(=O)cc1C(NC(C)=O)CC2 (stereo not given)
GI50 [1]: 0.136 µM (active)
GI50 [2]: 0.332 µM (active)
GI50 [3]: 0.317 µM (active)
GI50 [4]: 0.953 µM (active)
GI50 [58]: 0.437 µM (active)
GI50 [57]: 0.211 µM (active)
GI50 [5]: 0.0414 µM (active)
GI50 [6]: 0.054 µM (active)
GI50 [8]: 0.0685 µM (active)
GI50 [9]: 0.0509 µM (active)
GI50 [59]: 0.0624 µM (active)
GI50 [10]: > 100 µM (inactive)
GI50 [11]: 0.075 µM (active)
GI50 [12]: 0.055 µM (active)
GI50 [13]: 0.612 µM
GI50 [14]: 0.0208 µM (active)
GI50 [15]: > 100 µM (inactive)
GI50 [16]: 0.172 µM (active)
GI50 [17]: 0.0863 µM (active)
GI50 [18]: 0.0721 µM (active)
GI50 [60]: > 100 µM (inactive)
GI50 [19]: 0.166 µM (active)
GI50 [20]: 0.0335 µM (active)
GI50 [21]: 0.12 µM (active)
GI50 [22]: 0.0346 µM (active)
GI50 [23]: 0.0449 µM (active)
GI50 [24]: 0.125 µM (active)
GI50 [25]: 0.0621 µM (active)
GI50 [26]: 0.605 µM (active)
GI50 [61]: < 0.01 µM (active)
GI50 [62]: 0.139 µM (active)
GI50 [63]: < 0.01 µM (active)
GI50 [64]: < 0.01 µM (active)
GI50 [27]: 0.0553 µM (active)
GI50 [28]: 0.0867 µM (active)
GI50 [55]: 0.845 µM (active)
GI50 [29]: 0.0596 µM (active)
GI50 [30]: 0.123 µM (active)
GI50 [65]: 0.0382 µM (active)
GI50 [31]: 0.0463 µM (active)
GI50 [32]: 32.4 µM (inactive)
GI50 [33]: 7.5 µM (inactive)
GI50 [34]: 0.2 µM (active)
GI50 [66]: 0.0152 µM (active)
GI50 [35]: 0.0267 µM (active)
GI50 [36]: 0.0543 µM (active)
GI50 [37]: 0.128 µM (active)
GI50 [38]: 0.0792 µM (active)
GI50 [39]: 0.042 µM (active)
GI50 [40]: 2.15 µM (inactive)
GI50 [56]: 0.0698 µM (active)
GI50 [41]: 0.0397 µM (active)
GI50 [42]: 0.485 µM (active)
GI50 [43]: 0.339 µM (active)
GI50 [44]: 0.748 µM (active)
GI50 [45]: 0.0391 µM (active)
GI50 [46]: 0.0859 µM (active)
GI50 [48]: 0.0408 µM (active)
GI50 [67]: > 100 µM (inactive)
GI50 [49]: > 28.2 µM (inactive)
GI50 [50]: 0.0771 µM (active)
GI50 [51]: 0.0607 µM (active)
GI50 [52]: 0.0474 µM (active)
GI50 [53]: 4.93 µM (inactive)
GI50 [54]: 0.117 µM (active)
